Results from the NIST ThermoML archive (doi:10.1021/je101361u).

Assay: xn = mol fraction of the nth substance listed
Conditions: 101.3 kPa, Liquid, Vibrating tube method

CCOCCOCCOCC [diethylene glycol diethyl ether] + ClCCCl
mass density [kg/m3]
Conditions | 283.15 K | 288.15 K | 293.15 K | 298.15 K | 303.15 K | 308.15 K
x2 = 0.0234 | 920.54 | 915.7 | 910.83 | 905.98 | 901.12 | 896.25
x2 = 0.0504 | 925.19 | 920.3 | 915.41 | 910.52 | 905.62 | 900.73
x2 = 0.0751 | 929.56 | 924.64 | 919.72 | 914.8 | 909.87 | 904.95
x2 = 0.1009 | 934.31 | 929.36 | 924.39 | 919.44 | 914.47 | 909.51
x2 = 0.1504 | 943.66 | 938.64 | 933.61 | 928.58 | 923.55 | 918.52
x2 = 0.2 | 953.71 | 948.62 | 943.52 | 938.42 | 933.31 | 928.2
x2 = 0.2546 | 965.43 | 960.24 | 955.05 | 949.86 | 944.67 | 939.47
x2 = 0.2999 | 975.65 | 970.39 | 965.13 | 959.86 | 954.59 | 949.32
x2 = 0.35 | 987.75 | 982.41 | 977.05 | 971.69 | 966.34 | 960.97
x2 = 0.4006 | 1000.78 | 995.34 | 989.89 | 984.44 | 978.99 | 973.53
x2 = 0.4502 | 1014.42 | 1008.87 | 1003.32 | 997.77 | 992.22 | 986.66
x2 = 0.5002 | 1029.16 | 1023.52 | 1017.86 | 1012.21 | 1006.55 | –
x2 = 0.5499 | 1044.87 | 1039.11 | 1033.35 | 1027.58 | 1021.8 | –
x2 = 0.6 | 1061.87 | 1056 | 1050.12 | 1044.23 | 1038.33 | –
x2 = 0.65 | 1080.19 | 1074.19 | 1068.18 | 1062.16 | 1056.14 | –
x2 = 0.6999 | 1100.05 | 1093.92 | 1087.77 | 1081.63 | 1075.47 | –
x2 = 0.7492 | 1121.14 | 1114.87 | 1108.58 | 1102.29 | 1095.99 | –
x2 = 0.8 | 1145.22 | 1138.79 | 1132.34 | 1125.89 | 1119.42 | –
x2 = 0.85 | 1171.12 | 1164.52 | 1157.9 | 1151.27 | 1144.62 | –
x2 = 0.9 | 1199.76 | 1192.98 | 1186.17 | 1179.35 | 1172.51 | –
x2 = 0.95 | 1231.56 | 1224.58 | 1217.56 | 1210.52 | 1203.45 | –
x2 = 0.975 | 1248.9 | 1241.8 | 1234.66 | 1227.5 | 1220.32 | –
